Results on 10 molecules are retold here after PubChem BioAssay (NCI).

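All cell lines were grown in 96-well plates and treated with compound for 48 hours. GI50: concentration for 50% inhibition of growth. TGI: concentration producing complete growth inhibition.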

Some test systems named below: SK-MEL-28 melanoma; UACC-257 melanoma; A549 NSCLC; NCI-H23 lung; SNB-19 CNS; EKVX NSCLC; OVCAR-5 ovarian; HCT-15 colon; RXF 393 renal; OVCAR-4 ovarian.
What all share (assay): DTP human tumour cell line panel, 48 h

Turning to `Nc1cc(F)ccc1CC(=O)O`, the total growth inhibition concentration (TGI) in the assay on SK-MEL-28 melanoma, with UACC-257 melanoma, in the assay with A549 NSCLC, in the assay on NCI-H23 lung, in the assay with SNB-19 CNS and in the assay on EKVX NSCLC was greater than 100 µM in each case. Further, the TGI with OVCAR-5 ovarian, with HCT-15 colon and in the assay on RXF 393 renal was greater than 100 µM each time.

Turning to `O=C(O)/C=C/C(=O)N1Cc2cc3ccccc3nc2C1`, the TGI with SK-MEL-28 melanoma, with UACC-257 melanoma, in the assay on A549 NSCLC, in the assay with NCI-H23 lung, with SNB-19 CNS and in the assay on EKVX NSCLC was greater than 100 µM each time. Further, the concentration for total growth inhibition (TGI) with OVCAR-5 ovarian, in the assay on HCT-15 colon and with RXF 393 renal was greater than 100 µM in each case.

In the case of `COC1=CC(c2ccc[nH]2)=N/C1=C\c1[nH]c(C)c(CC(=O)OCc2ccccc2)c1CCC(=O)OCc1ccccc1`, the GI50 (in general, the concentration giving 50% growth inhibition) is 0.721 µM in the assay on UACC-257 melanoma; 0.427 µM with A549 NSCLC; 0.358 µM in the assay on OVCAR-4 ovarian; 0.546 µM in the assay on NCI-H23 lung; 1.72 µM in the assay on SNB-19 CNS; 0.349 µM in the assay on EKVX NSCLC. Also, the GI50 with OVCAR-5 ovarian was 1.26 µM; in the assay with HCT-15 colon, 0.313 µM; in the assay on RXF 393 renal, 0.423 µM. Moreover, the total growth inhibition concentration (TGI) (in general, the concentration giving total growth inhibition) in the assay with UACC-257 melanoma was 3.1 µM; with A549 NSCLC, 10.9 µM; in the assay with OVCAR-4 ovarian it was 17.6 µM; in the assay on NCI-H23 lung it was 4.45 µM; with SNB-19 CNS, greater than 100 µM; in the assay with EKVX NSCLC it was 4.13 µM. For the same molecule, the concentration for total growth inhibition (TGI) in the assay on OVCAR-5 ovarian was found to be 6.12 µM; in the assay with HCT-15 colon it was 1.18 µM; with RXF 393 renal, 2.19 µM.

Regarding `O=C1c2[nH]cc(CNC3CN4CCC3CC4)c2C(=O)c2c1c(O)c1ccccc1c2O` (stereo not drawn), the GI50 was 13 µM in the assay with SK-MEL-28 melanoma; 31.7 µM in the assay on UACC-257 melanoma; 6.31 µM in the assay with A549 NSCLC; 16.3 µM in the assay with OVCAR-4 ovarian; 2.92 µM in the assay with SNB-19 CNS; 16.1 µM in the assay on EKVX NSCLC. Also, the GI50 was 2.01 µM in the assay on OVCAR-5 ovarian, 3.62 µM with HCT-15 colon and 5.28 µM in the assay on RXF 393 renal. Moreover, the concentration for total growth inhibition (TGI) is 34.2 µM in the assay on SK-MEL-28 melanoma; greater than 76.3 µM with UACC-257 melanoma; 47.4 µM with A549 NSCLC; 55.7 µM with OVCAR-4 ovarian; 12.4 µM in the assay with SNB-19 CNS; 33.1 µM in the assay on EKVX NSCLC. Also, the TGI worked out at 3.78 µM in the assay with OVCAR-5 ovarian, 8.55 µM with HCT-15 colon and 84.3 µM with RXF 393 renal.

As for `C=C=C(C(=O)OC)S(=O)c1ccccc1[N+](=O)[O-]` (stereo not drawn), the concentration for total growth inhibition (TGI) with UACC-257 melanoma, with A549 NSCLC, with OVCAR-4 ovarian, with NCI-H23 lung, with SNB-19 CNS and in the assay with EKVX NSCLC was greater than 100 µM in each case. The TGI in the assay on OVCAR-5 ovarian, with HCT-15 colon and with RXF 393 renal was greater than 100 µM throughout.

As for `CC(=O)Nc1ccccc1-c1nc2ccccc2nc1C`, the total growth inhibition concentration (TGI) in the assay on SK-MEL-28 melanoma, with UACC-257 melanoma, in the assay with A549 NSCLC, with OVCAR-4 ovarian, in the assay with NCI-H23 lung and with SNB-19 CNS was greater than 100 µM in each case. Moreover, the concentration for total growth inhibition (TGI) in the assay with EKVX NSCLC, in the assay with OVCAR-5 ovarian and with HCT-15 colon was greater than 100 µM throughout.

`Cn1cc(C2=C(c3ccccc3[N+](=O)[O-])C(=O)NC2=O)c2ccccc21`: the GI50 was 6.24 µM in the assay with SK-MEL-28 melanoma; 7.11 µM with UACC-257 melanoma; 4.09 µM in the assay with A549 NSCLC; 4.88 µM in the assay with OVCAR-4 ovarian; 7.25 µM in the assay on NCI-H23 lung; 6.88 µM with SNB-19 CNS. Besides, the values for the GI50 in the assay with OVCAR-5 ovarian, with HCT-15 colon and with RXF 393 renal were 8.64 µM, 5.16 µM and 1.61 µM, respectively. The concentration for total growth inhibition (TGI) is 20.1 µM with SK-MEL-28 melanoma; 17.7 µM in the assay on UACC-257 melanoma; greater than 21.8 µM in the assay with A549 NSCLC; 24.5 µM in the assay with OVCAR-4 ovarian; greater than 25 µM with NCI-H23 lung; greater than 25 µM in the assay on SNB-19 CNS. The TGI in the assay with OVCAR-5 ovarian is greater than 25 µM; with HCT-15 colon it was greater than 25 µM; in the assay on RXF 393 renal it was 7.19 µM.

Regarding `C[C@]12CCc3nc(Nc4cccc(O)c4)sc3C1=CC[C@@H]1[C@@H]2CC[C@]2(C)/C(=N\NC(N)=S)CC[C@@H]12`, the GI50 with UACC-257 melanoma was 2.12 µM; in the assay on A549 NSCLC it was 2.95 µM; with NCI-H23 lung, 2.78 µM; in the assay on SNB-19 CNS, 1.88 µM; in the assay with EKVX NSCLC, 2.74 µM; in the assay with OVCAR-5 ovarian, 2.6 µM. Besides, the GI50 in the assay with HCT-15 colon is 1.15 µM; in the assay on RXF 393 renal it was 0.574 µM. Further, the TGI was 6.4 µM in the assay with UACC-257 melanoma; 11.4 µM in the assay on A549 NSCLC; 8.96 µM with NCI-H23 lung; 12.8 µM in the assay on SNB-19 CNS; 9.26 µM in the assay on EKVX NSCLC; 7.77 µM in the assay with OVCAR-5 ovarian. Besides, the values for the total growth inhibition concentration (TGI) in the assay with HCT-15 colon and in the assay on RXF 393 renal were 2.64 µM and 2.19 µM, respectively.

Consider `COc1ccccc1NC(=O)C1=C(C)NC(C)=C(C(=O)Nc2ccccc2OC)C1C1=CC=COC1`, for which the TGI was 74 µM in the assay on SK-MEL-28 melanoma; 68.3 µM in the assay with UACC-257 melanoma; greater than 100 µM in the assay on A549 NSCLC; greater than 100 µM in the assay on OVCAR-4 ovarian; greater than 100 µM in the assay with NCI-H23 lung; 84.2 µM in the assay with SNB-19 CNS. The TGI is greater than 100 µM in the assay with EKVX NSCLC, greater than 100 µM in the assay with OVCAR-5 ovarian and 15 µM with HCT-15 colon.

In the case of `CO/C=C/C(=O)c1cc2cnc3c(=N)cc(NC(=O)C(C)C)c([nH]1)c23`, the concentration for 50% growth inhibition (GI50) with SK-MEL-28 melanoma was 0.0587 µM; with UACC-257 melanoma it was 0.0901 µM; with A549 NSCLC, 1.52 µM; in the assay with OVCAR-4 ovarian it was 0.0637 µM; in the assay on NCI-H23 lung, 0.0432 µM; in the assay on SNB-19 CNS, 0.148 µM. Also, the GI50 in the assay with OVCAR-5 ovarian is 0.12 µM; with HCT-15 colon, 0.0431 µM; in the assay with RXF 393 renal, 0.0301 µM. Further, the TGI in the assay with SK-MEL-28 melanoma is 0.509 µM; in the assay with UACC-257 melanoma, 0.862 µM; in the assay with A549 NSCLC, 15.1 µM; with OVCAR-4 ovarian, 0.746 µM; in the assay with NCI-H23 lung, 1.83 µM; in the assay on SNB-19 CNS, 1.08 µM. Further, the TGI with OVCAR-5 ovarian turned out to be 7.41 µM; in the assay on HCT-15 colon, 0.99 µM; in the assay with RXF 393 renal, 0.246 µM.
